# Test results from PubChem BioAssay (NCI).
#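 Briefly, cells in 96-well plates were exposed to five compound concentrations for 48 h, and endpoints were estimated by linear interpolation. The concentration for 50% growth inhibition is given as GI50. The concentration for full growth arrest is given as TGI.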
# Key:
# Assay in all cases: DTP human tumour cell line panel, 48 h
# ACHN renal = tested on: ACHN renal
# UACC-257 melanoma = tested on: UACC-257 melanoma
# KM12 colon = tested on: KM12 colon
# SF-295 CNS = tested on: SF-295 CNS
# RXF 393 renal = tested on: RXF 393 renal
# MALME-3M melanoma = tested on: MALME-3M melanoma
# HCT-116 colon = tested on: HCT-116 colon
# U251 CNS = tested on: U251 CNS
# OVCAR-3 ovarian = tested on: OVCAR-3 ovarian
# DU-145 prostate = tested on: DU-145 prostate
# K-562 leukemia = tested on: K-562 leukemia
# OVCAR-5 ovarian = tested on: OVCAR-5 ovarian
# SK-MEL-5 melanoma = tested on: SK-MEL-5 melanoma
# SF-268 CNS = tested on: SF-268 CNS
# 786-0 renal = tested on: 786-0 renal
# CAKI-1 renal = tested on: CAKI-1 renal
# HT29 colon = tested on: HT29 colon
# CCRF-CEM leukemia = tested on: CCRF-CEM leukemia
# TK-10 renal = tested on: TK-10 renal
# A549 NSCLC = tested on: A549 NSCLC
# NCI-H226 lung = tested on: NCI-H226 lung
# SW-620 colon = tested on: SW-620 colon
# EKVX NSCLC = tested on: EKVX NSCLC
# SK-MEL-28 melanoma = tested on: SK-MEL-28 melanoma
# SK-MEL-2 melanoma = tested on: SK-MEL-2 melanoma
# HS 578T breast = tested on: HS 578T breast
# NCI/ADR-RES ovarian = tested on: NCI/ADR-RES ovarian
# SNB-19 CNS = tested on: SNB-19 CNS
# SF-539 CNS = tested on: SF-539 CNS
# HOP-92 NSCLC = tested on: HOP-92 NSCLC
# SNB-75 CNS = tested on: SNB-75 CNS
# A498 renal = tested on: A498 renal
# NCI-H522 lung = tested on: NCI-H522 lung
# IGROV1 ovarian = tested on: IGROV1 ovarian
# MDA-MB-435 = tested on: MDA-MB-435
# M14 melanoma = tested on: M14 melanoma
# SN12C renal = tested on: SN12C renal
# OVCAR-8 ovarian = tested on: OVCAR-8 ovarian
# T-47D breast = tested on: T-47D breast
# SK-OV-3 ovarian = tested on: SK-OV-3 ovarian
# PC-3 prostate = tested on: PC-3 prostate
# HCC-2998 colon = tested on: HCC-2998 colon
# COLO 205 colon = tested on: COLO 205 colon
# RPMI-8226 leukemia = tested on: RPMI-8226 leukemia
# LOX IMVI melanoma = tested on: LOX IMVI melanoma
# MCF7 breast = tested on: MCF7 breast
# HL-60(TB) leukemia = tested on: HL-60(TB) leukemia
# UO-31 renal = tested on: UO-31 renal
# MDA-MB-231 breast = tested on: MDA-MB-231 breast
# HCT-15 colon = tested on: HCT-15 colon
# UACC-62 melanoma = tested on: UACC-62 melanoma
# BT-549 breast = tested on: BT-549 breast
# NCI-H460 lung = tested on: NCI-H460 lung
# OVCAR-4 ovarian = tested on: OVCAR-4 ovarian
# HOP-62 NSCLC = tested on: HOP-62 NSCLC
# MOLT-4 leukemia = tested on: MOLT-4 leukemia
compound,measurement,setting,value
COc1ccc2c(c1)c(-c1cc(N)n3nc(-c4cn(C)c5ccc(OC)cc45)cc3n1)cn2C,GI50,ACHN renal,1.79 µM
same,TGI,ACHN renal,3.25 µM
same,GI50,UACC-257 melanoma,1.78 µM
same,TGI,UACC-257 melanoma,3.63 µM
same,GI50,KM12 colon,1.85 µM
same,TGI,KM12 colon,3.51 µM
same,GI50,SF-295 CNS,1.88 µM
same,TGI,SF-295 CNS,3.44 µM
same,GI50,RXF 393 renal,1.87 µM
same,TGI,RXF 393 renal,3.57 µM
same,GI50,MALME-3M melanoma,1.87 µM
same,TGI,MALME-3M melanoma,3.65 µM
same,GI50,HCT-116 colon,1.5 µM
same,TGI,HCT-116 colon,3.1 µM
same,GI50,U251 CNS,1.82 µM
same,TGI,U251 CNS,3.49 µM
same,GI50,OVCAR-3 ovarian,1.75 µM
same,TGI,OVCAR-3 ovarian,3.17 µM
same,GI50,DU-145 prostate,1.8 µM
same,TGI,DU-145 prostate,3.19 µM
same,GI50,K-562 leukemia,0.392 µM
same,TGI,K-562 leukemia,> 100 µM
same,GI50,OVCAR-5 ovarian,1.84 µM
same,TGI,OVCAR-5 ovarian,3.58 µM
same,GI50,SK-MEL-5 melanoma,1.79 µM
same,TGI,SK-MEL-5 melanoma,3.25 µM
same,GI50,SF-268 CNS,2.03 µM
same,TGI,SF-268 CNS,4.4 µM
same,GI50,786-0 renal,1.64 µM
same,TGI,786-0 renal,3.41 µM
same,GI50,CAKI-1 renal,1.79 µM
same,TGI,CAKI-1 renal,3.46 µM
same,GI50,HT29 colon,1.73 µM
same,TGI,HT29 colon,3.14 µM
same,GI50,CCRF-CEM leukemia,0.436 µM
same,TGI,CCRF-CEM leukemia,7.46 µM
same,GI50,TK-10 renal,1.81 µM
same,TGI,TK-10 renal,3.6 µM
same,GI50,A549 NSCLC,1.7 µM
same,TGI,A549 NSCLC,3.31 µM
same,GI50,NCI-H226 lung,2.06 µM
same,TGI,NCI-H226 lung,4.25 µM
same,GI50,SW-620 colon,1.02 µM
same,TGI,SW-620 colon,2.41 µM
same,GI50,EKVX NSCLC,1.84 µM
same,TGI,EKVX NSCLC,3.67 µM
same,GI50,SK-MEL-28 melanoma,1.85 µM
same,TGI,SK-MEL-28 melanoma,3.46 µM
same,GI50,SK-MEL-2 melanoma,1.83 µM
same,TGI,SK-MEL-2 melanoma,3.46 µM
same,GI50,HS 578T breast,2.57 µM
same,TGI,HS 578T breast,6.67 µM
same,GI50,NCI/ADR-RES ovarian,2.07 µM
same,TGI,NCI/ADR-RES ovarian,4.52 µM
same,GI50,SNB-19 CNS,2.5 µM
same,TGI,SNB-19 CNS,6.69 µM
same,GI50,SF-539 CNS,1.78 µM
same,TGI,SF-539 CNS,3.27 µM
same,GI50,HOP-92 NSCLC,1.88 µM
same,TGI,HOP-92 NSCLC,4.25 µM
same,GI50,SNB-75 CNS,2.13 µM
same,TGI,SNB-75 CNS,6.27 µM
same,GI50,A498 renal,1.84 µM
same,TGI,A498 renal,3.68 µM
same,GI50,NCI-H522 lung,1.74 µM
same,TGI,NCI-H522 lung,3.41 µM
same,GI50,IGROV1 ovarian,2 µM
same,TGI,IGROV1 ovarian,4.14 µM
same,GI50,MDA-MB-435,1.91 µM
same,TGI,MDA-MB-435,3.74 µM
same,GI50,M14 melanoma,1.74 µM
same,TGI,M14 melanoma,3.42 µM
same,GI50,SN12C renal,2.02 µM
same,TGI,SN12C renal,3.98 µM
same,GI50,OVCAR-8 ovarian,1.75 µM
same,TGI,OVCAR-8 ovarian,3.29 µM
same,GI50,T-47D breast,1.7 µM
same,TGI,T-47D breast,3.5 µM
same,GI50,SK-OV-3 ovarian,2.14 µM
same,TGI,SK-OV-3 ovarian,4.31 µM
same,GI50,PC-3 prostate,1.84 µM
same,TGI,PC-3 prostate,3.93 µM
same,GI50,HCC-2998 colon,1.87 µM
same,TGI,HCC-2998 colon,3.32 µM
same,GI50,COLO 205 colon,1.7 µM
same,TGI,COLO 205 colon,3.19 µM
same,GI50,RPMI-8226 leukemia,1.78 µM
same,TGI,RPMI-8226 leukemia,6.15 µM
same,GI50,LOX IMVI melanoma,2.04 µM
same,TGI,LOX IMVI melanoma,3.64 µM
same,GI50,MCF7 breast,1.25 µM
same,TGI,MCF7 breast,2.74 µM
same,GI50,HL-60(TB) leukemia,1.31 µM
same,TGI,HL-60(TB) leukemia,3.98 µM
same,GI50,UO-31 renal,1.66 µM
same,TGI,UO-31 renal,3.19 µM
same,GI50,MDA-MB-231 breast,1.84 µM
same,TGI,MDA-MB-231 breast,3.49 µM
same,GI50,HCT-15 colon,1.15 µM
same,TGI,HCT-15 colon,2.78 µM
same,GI50,UACC-62 melanoma,1.96 µM
same,TGI,UACC-62 melanoma,3.87 µM
same,GI50,BT-549 breast,3.23 µM
same,TGI,BT-549 breast,12 µM
same,GI50,NCI-H460 lung,1.79 µM
same,TGI,NCI-H460 lung,3.52 µM
same,GI50,OVCAR-4 ovarian,2.04 µM
same,TGI,OVCAR-4 ovarian,4.27 µM
same,GI50,HOP-62 NSCLC,1.81 µM
same,TGI,HOP-62 NSCLC,3.67 µM
same,GI50,MOLT-4 leukemia,1.95 µM
same,TGI,MOLT-4 leukemia,4.88 µM
